Source: ChEMBL document CHEMBL3885881, “DrugMatrix”

Organism: Rattus norvegicus
Assay: DrugMatrix - Regimen: Daily Repeat
Format: toxicity, organism-based, Sprague-Dawley
Design: regimen Daily Repeat, gender Male, age 6-8 weeks
Details: in vivo, po, route oral GAVAGE, vehicle .5 % CMC; for BASOPHIL / EOSINOPHIL / ERYTHROCYTE COUNT / HEMATOCRIT / HEMOGLOBIN / LEUKOCYTE COUNT / LYMPHOCYTE / MEAN CORPUSCULAR HEMOGLOBIN / MEAN CORPUSCULAR HEMOGLOBIN CONCENTRATION / MEAN CORPUSCULAR VOLUME / MONOCYTE / NEUTROPHIL / PLATELET COUNT: tissue Blood; for ALANINE AMINOTRANSFERASE / ALBUMIN / ALKALINE PHOSPHATASE / ASPARTATE AMINOTRANSFERASE / BLOOD UREA NITROGEN / CHLORIDE / CHOLESTEROL / CREATINE PHOSPHOKINASE / CREATININE / GLUCOSE / PHOSPHORUS / POTASSIUM / SODIUM / TOTAL BILIRUBIN / TOTAL PROTEIN: tissue Plasma
[1] = 0 mg/kg, 72 h, dose level Control, time 3 day
[2] = 0 mg/kg, 120 h, dose level Control, time 5 day
[3] = 25 mg/kg, 72 h, dose level Low, time 3 day
[4] = 25 mg/kg, 120 h, dose level Low, time 5 day

N=C(N)NCCN1CCCCCCC1 [GUANETHIDINE]
BASOPHIL [1]: 0%
EOSINOPHIL [1]: 0%
ERYTHROCYTE COUNT [1]: 6.34 x10E6/uL
HEMATOCRIT [1]: 37.62%
HEMOGLOBIN [1]: 14.82 G/DL
LEUKOCYTE COUNT [1]: 11.18 x10E3/uL
LYMPHOCYTE [1]: 87.5%
MEAN CORPUSCULAR HEMOGLOBIN [1]: 23.48 pg
MEAN CORPUSCULAR HEMOGLOBIN CONCENTRATION [1]: 39.5 G/DL
MEAN CORPUSCULAR VOLUME [1]: 59.45 fL
MONOCYTE [1]: 1.67%
NEUTROPHIL [1]: 10.83%
PLATELET COUNT [1]: 1074.83 x10E3/uL
ALANINE AMINOTRANSFERASE [1]: 36.5 u/L
ALBUMIN [1]: 3.9 G/DL
ALKALINE PHOSPHATASE [1]: 370.17 u/L
ASPARTATE AMINOTRANSFERASE [1]: 63.17 u/L
BLOOD UREA NITROGEN [1]: 16.83 mg/dL
CHLORIDE [1]: 99.33 MEQ/L
CHOLESTEROL [1]: 64.33 mg/dL
CREATINE PHOSPHOKINASE [1]: 127 u/L
CREATININE [1]: 0.55 mg/dL
GLUCOSE [1]: 173.5 mg/dL
PHOSPHORUS [1]: 10.08 mg/dL
POTASSIUM [1]: 6.23 MEQ/L
SODIUM [1]: 143.5 MEQ/L
TOTAL BILIRUBIN [1]: 0.52 mg/dL
TOTAL PROTEIN [1]: 6.35 G/DL
BASOPHIL [2]: 0%
EOSINOPHIL [2]: 0.17%
ERYTHROCYTE COUNT [2]: 6.12 x10E6/uL
HEMATOCRIT [2]: 37.08%
HEMOGLOBIN [2]: 14.82 G/DL
LEUKOCYTE COUNT [2]: 11.87 x10E3/uL
LYMPHOCYTE [2]: 83.33%
MEAN CORPUSCULAR HEMOGLOBIN [2]: 24.25 pg
MEAN CORPUSCULAR HEMOGLOBIN CONCENTRATION [2]: 39.97 G/DL
MEAN CORPUSCULAR VOLUME [2]: 60.65 fL
MONOCYTE [2]: 1.5%
NEUTROPHIL [2]: 15%
PLATELET COUNT [2]: 1042.83 x10E3/uL
ALANINE AMINOTRANSFERASE [2]: 46 u/L
ALBUMIN [2]: 3.82 G/DL
ALKALINE PHOSPHATASE [2]: 369.5 u/L
ASPARTATE AMINOTRANSFERASE [2]: 65 u/L
BLOOD UREA NITROGEN [2]: 16.33 mg/dL
CHLORIDE [2]: 100.67 MEQ/L
CHOLESTEROL [2]: 57.17 mg/dL
CREATINE PHOSPHOKINASE [2]: 130 u/L
CREATININE [2]: 0.53 mg/dL
GLUCOSE [2]: 163.33 mg/dL
PHOSPHORUS [2]: 9.53 mg/dL
POTASSIUM [2]: 6.27 MEQ/L
SODIUM [2]: 144.83 MEQ/L
TOTAL BILIRUBIN [2]: 0.55 mg/dL
TOTAL PROTEIN [2]: 6.32 G/DL
BASOPHIL [3]: 0%
EOSINOPHIL [3]: 0%
ERYTHROCYTE COUNT [3]: 6 x10E6/uL
HEMATOCRIT [3]: 35.93%
HEMOGLOBIN [3]: 14.07 G/DL
LEUKOCYTE COUNT [3]: 11.77 x10E3/uL
LYMPHOCYTE [3]: 86.33%
MEAN CORPUSCULAR HEMOGLOBIN [3]: 23.5 pg
MEAN CORPUSCULAR HEMOGLOBIN CONCENTRATION [3]: 39.17 G/DL
MEAN CORPUSCULAR VOLUME [3]: 60.07 fL
MONOCYTE [3]: 0%
NEUTROPHIL [3]: 13.67%
PLATELET COUNT [3]: 1321.67 x10E3/uL
ALANINE AMINOTRANSFERASE [3]: 33.67 u/L
ALBUMIN [3]: 3.63 G/DL
ALKALINE PHOSPHATASE [3]: 372.67 u/L
ASPARTATE AMINOTRANSFERASE [3]: 57.67 u/L
BLOOD UREA NITROGEN [3]: 11.33 mg/dL
CHLORIDE [3]: 98.67 MEQ/L
CHOLESTEROL [3]: 63.67 mg/dL
CREATINE PHOSPHOKINASE [3]: 142.33 u/L
CREATININE [3]: 0.43 mg/dL
GLUCOSE [3]: 175.67 mg/dL
PHOSPHORUS [3]: 12.27 mg/dL
POTASSIUM [3]: 5.97 MEQ/L
SODIUM [3]: 143.67 MEQ/L
TOTAL BILIRUBIN [3]: 0.33 mg/dL
TOTAL PROTEIN [3]: 5.8 G/DL
BASOPHIL [4]: 0%
EOSINOPHIL [4]: 0.67%
ERYTHROCYTE COUNT [4]: 5.92 x10E6/uL
HEMATOCRIT [4]: 35.83%
HEMOGLOBIN [4]: 14.4 G/DL
LEUKOCYTE COUNT [4]: 11.83 x10E3/uL
LYMPHOCYTE [4]: 89.67%
MEAN CORPUSCULAR HEMOGLOBIN [4]: 24.33 pg
MEAN CORPUSCULAR HEMOGLOBIN CONCENTRATION [4]: 40.17 G/DL
MEAN CORPUSCULAR VOLUME [4]: 60.63 fL
MONOCYTE [4]: 1%
NEUTROPHIL [4]: 8.67%
PLATELET COUNT [4]: 1170.33 x10E3/uL
ALANINE AMINOTRANSFERASE [4]: 33 u/L
ALBUMIN [4]: 3.53 G/DL
ALKALINE PHOSPHATASE [4]: 229.67 u/L
ASPARTATE AMINOTRANSFERASE [4]: 54.67 u/L
BLOOD UREA NITROGEN [4]: 10.33 mg/dL
CHLORIDE [4]: 100.33 MEQ/L
CHOLESTEROL [4]: 57.67 mg/dL
CREATINE PHOSPHOKINASE [4]: 129.33 u/L
CREATININE [4]: 0.47 mg/dL
GLUCOSE [4]: 170.67 mg/dL
PHOSPHORUS [4]: 11.13 mg/dL
POTASSIUM [4]: 5.9 MEQ/L
SODIUM [4]: 145.33 MEQ/L
TOTAL BILIRUBIN [4]: 0.2 mg/dL
TOTAL PROTEIN [4]: 5.7 G/DL
